Test system: human eye
Test: higher-order wavefront aberrations (rms) measured with a wavefront analyzer in subjects treated for 6 months
Type: in vivo
Settings: human subjects treated for 6 months; 20 mg/day zeaxanthin (Z), 20 mg/day lutein (L), or 10 mg lutein+10 mg zeaxanthin per day (C, P-C); versus placebo; FIG. 1
Description: The wavefront aberration function is a way of quantifying the imperfections of the optics of the eye that cause degradation of retinal image quality. The “ideal” wavefront is generated when a “point” on the retina is imaged through the optics of the eye as a plane and flat surface just outside the eye. This means that all the rays emerging from the eye form a parallel bundle and are perpendicular to this plane. The “real” wavefront surface is not a perfect two-dimensional plane and reflects the aberrations present in the optical system. It is usually represented mathematically by a series of terms known as Zernike polynomials. A knowledge of the coefficients of the Zernike polynomials provides a complete description of the wavefront surface. In order to obtain one single number that describes the quality of the imaging system (in this case the human eye) the root mean square (rms) deviation is calculated by computing the root of the mean of the squares of the actual deviations from the ideal plane. The rms value is equivalent to a standard deviation, but the two functions compared are 2D surfaces (i.e., the ideal wavefront and the actual wavefront). The wavefront aberrations are measured with a wavefront analyzer (see, e.g., J. Refract. Surg. 2001; 17(5), S608-S612). […]

| Compound | higher-order wavefront aberrations in the human eye |
| --- | --- |
| CC1=C(/C=C/C(C)=C/C=C/C(C)=C/C=C/C=C(C)/C=C/C=C(C)/C=C/C2=C(C)C[C@@H](O)CC2(C)C)C(C)(C)C[C@H](O)C1 [zeaxanthin] | reduction of higher-order wavefront aberrations |
| CC1=C[C@H](O)CC(C)(C)[C@H]1/C=C/C(C)=C/C=C/C(C)=C/C=C/C=C(C)/C=C/C=C(C)/C=C/C1=C(C)C[C@@H](O)CC1(C)C [lutein] | reduction of higher-order wavefront aberrations |

From patent publication US20080045605A1, “Image Quality in the Eye” (priority 2004, published 2008)
